In data set [1] the test system is ML-2 AML cell line. Briefly: Combination protocol for proliferation in dose matrix (Alamar blue), ML-2. The class given is cell-based. The protocol:
(§1) Combination Protocol for Proliferation in Dose Matrix
(§2) AML cell lines were seeded onto 96-well tissue culture plates in triplicates at a concentration of 1×10^4 cells/well. […] At the end of compound treatment, 20 μl Alamar blue was added. After further 5-6 hr incubation at 37° C. the plates were read on a Spectramax Gemini reader (Molecular Devices; excitation 535 nm, emission 590 nm).

Data set [2] concerns MV-4-11 AML cell line. The data set can be described thus: Combination protocol for measuring apoptosis (cleaved caspase-3), MV-4-11. The class given is cell-based. The conditions noted are these: SGI-110 10 nM daily for three days, isoindolinone 20 nM added on third day, 24 hrs, alone or combined, vehicle control 13.69. The protocol:
(§3) Combination Protocol for Measuring Apoptosis
(§4) SGI-110 was added daily for three days. […] Percentage apoptosis was measured as percentage fluorescent cells with cleaved caspase-3 in a Guava easyCyte HT cytometer (Millipore). Cleaved caspase-3 staining was recorded in the FL1 channel, with unstained and DMSO control wells being used to set the gated stained and unstained cell populations.
(§5) Table 1 summarises the % apoptosis seen in Molm-13, MV-4-11, or ML-2 with the indicated compound treatments.

Data set [3] concerns Molm-13 AML cell line. Briefly: Combination protocol for proliferation in dose matrix (Alamar blue), Molm-13. The class given is cell-based. How it is done:
as §1, §2
(The colour change of resazurin is a common sign of viable cells or microbes.)

Data set [4] relates to Molm-13 AML cell line. Briefly: Combination protocol for measuring apoptosis (cleaved caspase-3), Molm-13. The class given is cell-based. The note with it: SGI-110 10 nM daily for three days, isoindolinone 20 nM added on third day, 24 hrs, alone or combined, vehicle control 8.72. The protocol: as §3, §4, §5
The subject of data set [5] is ML-2 AML cell line. The data set can be described thus: Combination protocol for measuring apoptosis (cleaved caspase-3), ML-2. The note with it: SGI-110 10 nM daily for three days, isoindolinone 100 nM added on third day, 24 hrs, alone or combined, vehicle control 3.32. The class given is cell-based. The protocol: as §3, §4, §5
Data set [6] concerns MV-4-11 AML cell line. Briefly: Combination protocol for proliferation in dose matrix (Alamar blue), MV-4-11. The class given is cell-based. The protocol: as §1, §2
For data set [7] the following is noted: in vivo, sc.
Method: Three regimens were evaluated: a) once daily subcutaneous dose in rats and rabbits for 5 days; b) once weekly subcutaneous dose in rabbits and cynomolgus monkeys for 28 days as tolerated; and c) twice weekly subcutaneous dose in rats for 28 days as tolerated.
Data set [8] in a line: Tolerability of subcutaneous SGI-110 formulation in rabbits. The class given is in vivo. How it is done: (§6) The formulation was well-tolerated in the species tested. […] Rabbits tolerated the 5-day regimen well, up to a dose of 1.5 mg/kg/day, which is equivalent to […] in humans, and the weekly regimen up to a dose of 1.5 mg/kg/week for 3 weeks.
Data set [9] in a line: Tolerability of subcutaneous SGI-110 formulation in cynomolgus monkeys. The data set is classed as in vivo. How it is done: as §6
(§7) Cynomolgus monkeys tolerated the weekly regimen well, up to a dose of 3.0 mg/kg/week for 3 weeks, which is equivalent to […]. Rats tolerated much higher doses: 30 mg/kg/day over 5 days; and 20 mg/kg twice weekly for 4 weeks.

A short description of data set [10]: Tolerability of subcutaneous SGI-110 formulation in rats. The data set is classed as in vivo. How it is done: as §6, §7
Another data set concerns LINE-1 DNA methylation. The data set can be described thus: LINE-1 DNA methylation in blood samples, repeat dose study. The data set is classed as in vivo. The note with it: monkeys; 3 mg/kg subcutaneously 3x weekly; until day 22; p<0.05 vs level prior to initial dosing.
[11] abbreviates: SGI-110 0 μM + isoindolinone 0.001 μM.
Where [12] appears, read: SGI-110 0 μM + isoindolinone 0.003 μM.
Setting [13] is: SGI-110 0 μM + isoindolinone 0.01 μM.
[14] abbreviates: SGI-110 0 μM + isoindolinone 0.03 μM.
Setting [15] is: SGI-110 0 μM + isoindolinone 0.1 μM.
Setting [16] is: SGI-110 0 μM + isoindolinone 0.3 μM.
Where [17] appears, read: SGI-110 0 μM + isoindolinone 1 μM.
Where [18] appears, read: SGI-110 0 μM + isoindolinone 3 μM.
The mark [19] stands for this setting: SGI-110 0 μM + isoindolinone 10 μM.

From the text for LINE-1 DNA methylation: Blood samples were drawn periodically to assay LINE-1 DNA methylation.

For the compound `CC[C@@](O)(c1cc(F)c2c(c1)C(=O)N([C@H](c1ccc(Cl)cc1)[C@H](C)C(=O)O)[C@@]2(OC)c1ccc(Cl)cc1)C1CCOCC1` [(2S,3S)-3-(4-chlorophenyl)-3-[(1R)-1-(4-chlorophenyl)-7-fluoro-5-[(1S)-1-hydroxy-1-(oxan-4-yl)propyl]-1-methoxy-3-oxo-2,3-dihydro-1H-isoindol-2-yl]-2-methylpropanoic Acid], the “Percentage viability relative to DMSO control” value in the data set on ML-2 AML cell line [1] (setting [11]) came out at 100%; with ML-2 AML cell line [1] (setting [12]), 94%; in the data set on ML-2 AML cell line [1] (setting [13]) it was 78%; in the data set on ML-2 AML cell line [1] (setting [14]), 59%; with ML-2 AML cell line [1] (setting [15]) it was 47%; in the data set on ML-2 AML cell line [1] (setting [16]) it was 30%. Moreover, the “Percentage viability relative to DMSO control” value in the data set on ML-2 AML cell line [1] (setting [17]) was 16%; with ML-2 AML cell line [1] (setting [18]), 15%; in the data set with ML-2 AML cell line [1] (setting [19]), 9%; with Molm-13 AML cell line [3] (setting [11]), 98%; with Molm-13 AML cell line [3] (setting [12]), 99%; in the data set with Molm-13 AML cell line [3] (setting [13]) it was 84%. The “Percentage viability relative to DMSO control” value worked out at 52% in the data set with Molm-13 AML cell line [3] (setting [14]); 37% in the data set on Molm-13 AML cell line [3] (setting [15]); 27% with Molm-13 AML cell line [3] (setting [16]); 24% in the data set on Molm-13 AML cell line [3] (setting [17]); 22% in the data set with Molm-13 AML cell line [3] (setting [18]); 15% in the data set with Molm-13 AML cell line [3] (setting [19]). Besides, the “Percentage viability relative to DMSO control” value in the data set with MV-4-11 AML cell line [6] (setting [11]) is on record as 92%; with MV-4-11 AML cell line [6] (setting [12]), 82%; in the data set on MV-4-11 AML cell line [6] (setting [13]), 70%; in the data set on MV-4-11 AML cell line [6] (setting [14]) it was 54%; in the data set with MV-4-11 AML cell line [6] (setting [15]), 29%; in the data set with MV-4-11 AML cell line [6] (setting [16]), 16%. Moreover, the “Percentage viability relative to DMSO control” value is on record as 13% in the data set on MV-4-11 AML cell line [6] (setting [17]), 13% in the data set on MV-4-11 AML cell line [6] (setting [18]) and 12% in the data set with MV-4-11 AML cell line [6] (setting [19]). Also, the entries for the “% Apoptosis” value with MV-4-11 AML cell line [2], in the data set with Molm-13 AML cell line [4] and in the data set with ML-2 AML cell line [5] were 30.83%, 32.48% and 15.15%, respectively.
Regarding `Nc1ncn([C@H]2C[C@H](OP(=O)(O)OC[C@H]3O[C@@H](n4cnc5c(=O)[nH]c(N)nc54)C[C@@H]3O)[C@@H](CO)O2)c(=O)n1` [SGI-110, 2′-deoxy-5-azacytidylyl-(3′5′)-2′-deoxy-guanosine], the myelosuppression and recovery entry in [7] was “less myelosuppression and faster recovery”. The “% Apoptosis” value is reported as 26.12% in the data set on MV-4-11 AML cell line [2], 36.08% with Molm-13 AML cell line [4] and 3.93% in the data set on ML-2 AML cell line [5]. For the same compound, the “tolerated dose, once daily subcutaneous dose for 5 days” value in [8] (SGI-110 sodium salt 100 mg/mL in glycol/glycerin/ethanol (65:25:10)) is at most 1.5 mg/kg/day. Besides, the “tolerated dose, once weekly subcutaneous regimen” value is given as at most 1.5 mg/kg/week in data set [8] (for 3 weeks) and at most 3.0 mg/kg/week in data set [9] (cynomolgus monkeys, for 3 weeks). Further, the “equivalent dose of tolerated weekly regimen dose” value in data set [9] (from cynomolgus monkeys 3.0 mg/kg/week) came out at 36 mg/kg/week. Besides, the “tolerated dose, once daily subcutaneous regimen” value in data set [10] (over 5 days) is 30 mg/kg/day. The “tolerated dose, twice weekly subcutaneous regimen” value in data set [10] (twice weekly for 4 weeks) was 20 mg/kg. Also, the “LINE-1 DNA methylation” value in the data set on LINE-1 DNA methylation was “Decreases in LINE-1 DNA methylation”.

The values above are taken from patent US11236047B2 (ASTEX THERAPEUTICS LIMITED, priority 2017, dated 2022).
